In the supplement of paper PMC11061612:

What was measured:
AZD1775 = compound: C=CCn1c(=O)c2cnc(Nc3ccc(N4CCN(C)CC4)cc3)nc2n1-c1cccc(C(C)(C)O)n1 [AZD1775]
How it was run: (§1)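 In 1536-well plates, cancer cell lines in 7.5 μl DMEM/F12 or RPMI with 10% FBS spent 24 hours at 37°C and 5% CO2 and were then dosed for 72 hours with final DMSO typically 0.2%. Viability was read by CellTiter-Glo 2.0 luminescence and scaled between blank-well and DMSO-well means. The single-agent IC50 was fitted from dose responses using a logistic curve in a non-linear mixed effects model, and that logistic curve had two parameters.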

Trametinib = compound: CC(=O)Nc1cccc(-n2c(=O)n(C3CC3)c(=O)c3c(Nc4ccc(I)cc4F)n(C)c(=O)c(C)c32)c1 [Trametinib]; conditions: max 1 µM
How it was run: as §1

AZD7648 = compound: Cc1cc2ncnn2cc1Nc1ncc2c(n1)n(C1CCOCC1)c(=O)n2C [AZD7648]; conditions: max 10 µM
How it was run: as §1

[1] = compound: O=C(Nc1ccc2[nH]nc(-c3ccncc3)c2c1)[C@@H]1CCN(CC(=O)N2CCN(c3ccc(-c4ncccn4)cc3)CC2)C1; conditions: max 5 µM
How it was run: as §1

Etoposide = compound: COc1cc([C@@H]2c3cc4c(cc3[C@@H](O[C@@H]3O[C@@H]5CO[C@@H](C)O[C@H]5[C@H](O)[C@H]3O)[C@H]3COC(=O)[C@H]23)OCO4)cc(OC)c1O [Etoposide]; conditions: max 10 µM
How it was run: as §1

AZD5363 = compound: C1CN(CCC1(C(=O)N[C@@H](CCO)C2=CC=C(C=C2)Cl)N)C3=NC=NC4=C3C=CN4 [AZD5363]; conditions: max 10 µM
How it was run: as §1

Taselisib = compound: Cc1nc(-c2cn3c(n2)-c2ccc(-c4cnn(C(C)(C)C(N)=O)c4)cc2OCC3)n(C(C)C)n1 [Taselisib]; conditions: max 10 µM
How it was run: as §1

Palbociclib = compound: CC(=O)c1c(C)c2cnc(Nc3ccc(N4CCNCC4)cn3)nc2n(C2CCCC2)c1=O [Palbociclib]; conditions: max 10 µM
How it was run: as §1

SN-38 = compound: CCc1c2c(nc3ccc(O)cc13)-c1cc3c(c(=O)n1C2)COC(=O)[C@]3(O)CC [SN-38]; conditions: max 0.3 µM
How it was run: as §1

SG3199 = compound: CC1=CN2[C@@H](C1)C=NC3=CC(=C(C=C3C2=O)OC)OCCCCCOC4=C(C=C5C(=C4)N=C[C@@H]6CC(=CN6C5=O)C)OC [SG3199]; conditions: max 0.001 µM
How it was run: as §1

Gefitinib = compound: COc1cc2ncnc(Nc3ccc(F)c(Cl)c3)c2cc1OCCCN1CCOCC1 [Gefitinib]; conditions: max 10 µM
How it was run: as §1

AZD8186 = compound: C[C@@H](Nc1cc(F)cc(F)c1)c1cc(C(=O)N(C)C)cc2c(=O)cc(N3CCOCC3)oc12 [AZD8186]
How it was run: as §1

Dasatinib = compound: CC1=C(C(=CC=C1)Cl)NC(=O)C2=CN=C(S2)NC3=CC(=NC(=N3)C)N4CCN(CC4)CCO [Dasatinib]; conditions: max 2 µM
How it was run: as §1

Gemcitabine = compound: Nc1ccn([C@@H]2O[C@H](CO)[C@@H](O)C2(F)F)c(=O)n1 [Gemcitabine]; conditions: max 0.3 µM
How it was run: as §1

Doxorubicin = compound: COc1cccc2c1C(=O)c1c(O)c3c(c(O)c1C2=O)C[C@@](O)(C(=O)CO)C[C@@H]3O[C@H]1C[C@H](N)[C@H](O)[C@H](C)O1 [Doxorubicin]; conditions: max 1 µM
How it was run: as §1

SRA737 = compound: N#Cc1cnc(Nc2cc(NC[C@H]3CNCCO3)c(C(F)(F)F)cn2)cn1 [SRA737]; conditions: max 10 µM
How it was run: as §1

AZD5991 = compound: Cc1c2c(nn1C)CSCc1cc(n(C)n1)CSc1cc(c3ccccc3c1)OCCCc1c(C(=O)O)n(C)c3c-2c(Cl)ccc13 [AZD5991]; conditions: max 1 µM
How it was run: as §1

Crizotinib = compound: C[C@@H](Oc1cc(-c2cnn(C3CCNCC3)c2)cnc1N)c1c(Cl)ccc(F)c1Cl [Crizotinib]; conditions: max 10 µM
How it was run: as §1

MK-2206 = compound: NC1(c2ccc(-c3nc4ccn5c(=O)[nH]nc5c4cc3-c3ccccc3)cc2)CCC1 [MK-2206]; conditions: max 10 µM
How it was run: as §1

AZD2811 = compound: CCN(CCO)CCCOc1ccc2c(Nc3cc(CC(=O)Nc4cccc(F)c4)[nH]n3)ncnc2c1 [AZD2811]; conditions: max 1 µM
How it was run: as §1

AZD5153 = compound: COc1nnc2ccc(N3CCC(c4ccc(OCCN5CCN(C)C(=O)[C@H]5C)cc4)CC3)nn12 [AZD5153]; conditions: max 1 µM
How it was run: as §1

AZD6738 = compound: C[C@@H]1COCCN1C2=NC(=NC(=C2)C3(CC3)[S@](=N)(=O)C)C4=C5C=CNC5=NC=C4 [AZD6738]; conditions: max 10 µM
How it was run: as §1

Olaparib = compound: O=C(c1cc(Cc2n[nH]c(=O)c3ccccc23)ccc1F)N1CCN(C(=O)C2CC2)CC1 [Olaparib]; conditions: max 10 µM
How it was run: as §1

AZD1390 = compound: CC(C)n1c(=O)n(C)c2cnc3cc(F)c(-c4ccc(OCCCN5CCCCC5)nc4)cc3c21 [AZD1390]; conditions: max 0.3 µM
How it was run: as §1

AZD4320 = compound: CN(CC[C@H](CSC1=CC=CC=C1)NC2=C(C=C(C=C2)S(=O)(=O)NC(=O)C3=CC=C(C=C3)N4CCC(CC4)[C@H](C5=CC=CC=C5C6=CC=C(C=C6)Cl)O)S(=O)(=O)C(F)(F)F)CCO [AZD4320]; conditions: max 1 µM
How it was run: as §1

Lapatinib = compound: CS(=O)(=O)CCNCc1ccc(-c2ccc3ncnc(Nc4ccc(OCc5cccc(F)c5)c(Cl)c4)c3c2)o1 [Lapatinib]; conditions: max 10 µM
How it was run: as §1

Savolitinib = compound: C[C@@H](c1ccc2nccn2c1)n1nnc2ncc(-c3cnn(C)c3)nc21 [Savolitinib]; conditions: max 1 µM
How it was run: as §1

AZD0156 = compound: CN(C)CCCOc1ccc(-c2ccc3ncc4c(c3c2)n(C2CCOCC2)c(=O)n4C)cn1 [AZD0156]
How it was run: as §1

5-Fluorouracil = compound: O=c1[nH]cc(F)c(=O)[nH]1 [5-Fluorouracil]; conditions: max 20 µM
How it was run: as §1

Carboplatin = compound: C1CC(C1)(C(=O)[O-])C(=O)[O-].N.N.[Pt+2] [Carboplatin]; conditions: max 10 µM
How it was run: as §1

Alisertib = compound: COc1cc(Nc2ncc3c(n2)-c2ccc(Cl)cc2C(c2c(F)cccc2OC)=NC3)ccc1C(=O)O [Alisertib]; conditions: max 10 µM
How it was run: as §1

Paclitaxel = compound: CC(=O)O[C@H]1C(=O)[C@@]2(C)[C@H]([C@H](OC(=O)c3ccccc3)[C@]3(O)C[C@H](OC(=O)[C@H](O)[C@@H](NC(=O)c4ccccc4)c4ccccc4)C(C)=C1C3(C)C)[C@]1(OC(C)=O)CO[C@@H]1C[C@@H]2O [Paclitaxel]; conditions: max 3 µM
How it was run: as §1

Venetoclax = compound: CC1(C)CCC(CN2CCN(c3ccc(C(=O)NS(=O)(=O)c4ccc(NCC5CCOCC5)c([N+](=O)[O-])c4)c(Oc4cnc5[nH]ccc5c4)c3)CC2)=C(c2ccc(Cl)cc2)C1 [Venetoclax]; conditions: max 1 µM
How it was run: as §1

Selumetinib = compound: Cn1cnc2c(F)c(Nc3ccc(Br)cc3Cl)c(C(=O)NOCCO)cc21 [Selumetinib]; conditions: max 10 µM
How it was run: as §1

Prexasertib = compound: COc1cccc(OCCCN)c1-c1cc(Nc2cnc(C#N)cn2)n[nH]1 [Prexasertib]; conditions: max 1 µM
How it was run: as §1

Capivasertib = compound: C1CN(CCC1(C(=O)N[C@@H](CCO)C2=CC=C(C=C2)Cl)N)C3=NC=NC4=C3C=CN4 [Capivasertib]; conditions: max 10 µM
How it was run: as §1

Cell Line	IC50, cell viability 72 h (AZD1775; max 3 µM) [nM]	IC50, cell viability 72 h (Trametinib) [nM]	IC50, cell viability 72 h (AZD7648) [nM]	IC50, cell viability 72 h [1] [nM]	IC50, cell viability 72 h (Etoposide) [nM]	IC50, cell viability 72 h (AZD5363) [nM]	IC50, cell viability 72 h (Taselisib) [nM]	IC50, cell viability 72 h (Palbociclib) [nM]	IC50, cell viability 72 h (SN-38) [nM]	IC50, cell viability 72 h (SG3199) [nM]	IC50, cell viability 72 h (Gefitinib) [nM]	IC50, cell viability 72 h (AZD8186; max 10 µM) [nM]	IC50, cell viability 72 h (Dasatinib) [nM]	IC50, cell viability 72 h (Gemcitabine) [nM]	IC50, cell viability 72 h (Doxorubicin) [nM]	IC50, cell viability 72 h (SRA737) [nM]	IC50, cell viability 72 h (AZD5991) [nM]	IC50, cell viability 72 h (Crizotinib) [nM]	IC50, cell viability 72 h (MK-2206) [nM]	IC50, cell viability 72 h (AZD2811) [nM]	IC50, cell viability 72 h (AZD5153) [nM]	IC50, cell viability 72 h (AZD6738) [nM]	IC50, cell viability 72 h (Olaparib) [nM]	IC50, cell viability 72 h (AZD1390) [nM]	IC50, cell viability 72 h (AZD4320) [nM]	IC50, cell viability 72 h (Lapatinib) [nM]	IC50, cell viability 72 h (Savolitinib) [nM]	IC50, cell viability 72 h (AZD0156; max 3 µM) [nM]	IC50, cell viability 72 h (5-Fluorouracil) [nM]	IC50, cell viability 72 h (Carboplatin) [nM]	IC50, cell viability 72 h (Alisertib) [nM]	IC50, cell viability 72 h (Paclitaxel) [nM]	IC50, cell viability 72 h (Venetoclax) [nM]	IC50, cell viability 72 h (Selumetinib) [nM]	IC50, cell viability 72 h (Prexasertib) [nM]	IC50, cell viability 72 h (AZD1775; max 1 µM) [nM]	IC50, cell viability 72 h (AZD0156; max 1 µM) [nM]	IC50, cell viability 72 h (Capivasertib) [nM]	IC50, cell viability 72 h (AZD8186; max 3 µM) [nM]
EW-7 (Ewing's Sarcoma)	308	> 1000	9440	> 5000	253	4500	155	> 10000	5.52	> 1	> 10000	> 10000	> 2000	4.7	101	908	> 1000	3460	5630	> 1000	> 1000	1160	> 10000	> 300	943	> 10000	> 1000	> 3000	> 20000	> 10000	2150	40.8	> 1000	> 10000	5.28				
KP-N-YN (Neuroblastoma)		> 1000	> 10000	> 5000	> 10000	> 10000	5580	> 10000	35	> 1	> 10000	> 10000	> 2000		749	751	> 1000	> 10000	> 10000	402	> 1000	751	> 10000	> 300	49.2	> 10000	> 1000		> 20000	> 10000	1090	110	344	> 10000	5.36	307	> 1000		
MKN1 (Gastric Carcinoma)	640	> 1000	> 10000	> 5000	1250	> 10000	573	> 10000	124		> 10000	> 10000	560	161		4850	> 1000	> 10000	> 10000	> 1000	343	2870	> 10000	> 300	> 1000	> 10000	> 1000	> 3000	> 20000	> 10000		13.4	> 1000	> 10000					
NB13 (Neuroblastoma)		> 1000	> 10000	> 5000	2430		> 10000	> 10000	13.7	> 1	> 10000		> 2000	> 300	194	3640	> 1000	3970	> 10000	> 1000	953	2220	> 10000	> 300	139	> 10000	> 1000		> 20000	> 10000	244		> 1000	> 10000	15.9	322	> 1000	> 10000	> 3000
NCI-H841 (Small Cell Lung Carcinoma)	1690	> 1000	> 10000	> 5000	> 10000	> 10000	> 10000	> 10000	> 300		> 10000	> 10000	> 2000	> 300		> 10000	> 1000	> 10000	> 10000	> 1000	> 1000	> 10000	> 10000	> 300	> 1000	> 10000	> 1000	> 3000	> 20000	> 10000		26.6	> 1000	> 10000					
UACC-812 (Breast Carcinoma)	> 3000	> 1000	> 10000	> 5000	9330	> 10000	> 10000	> 10000	> 300	> 1	> 10000	> 10000	> 2000	> 300	> 1000	> 10000	> 1000	> 10000		> 1000	> 1000	> 10000	> 10000	> 300	> 1000	7470	> 1000	> 3000	> 20000	> 10000	> 10000	1920	> 1000	> 10000	851				
